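Dose response: 5 concentrations. Exposure: 48 h. Format: 96-well plates. Endpoint: linear interpolation; highest concentration if not reached. GI50 is the concentration that inhibits growth by half. Definition used: TGI = concentration required for complete inhibition of growth.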

Holding throughout (assay): NCI anticancer screen, dose series, 48 h
Test [1] has as its system SK-MEL-28 melanoma.
For test [2], the system named is HOP-92 NSCLC.
Test [3] deals with OVCAR-4 ovarian.
The subject of test [4] is MALME-3M melanoma.
Test [5] has as its system SN12C renal.
Test [6] concerns LOX IMVI melanoma.
In test [7] the test system is K-562 leukemia.
The test system of test [8] is SK-OV-3 ovarian.
In test [9] the test system is SW-620 colon.
The test system of test [10] is NCI-H522 lung.

In the case of `O=C1c2ccccc2-c2ccccc2C1(Cl)Cl`, the GI50 was 1.8 µM in test [1]; 1.76 µM in test [2]; 0.19 µM in [3]; 0.98 µM in [4]; 1.45 µM in test [5]; 0.314 µM in [6]. Also, the GI50 in test [7] is 0.43 µM; in test [8], 1.7 µM; in test [9], 1.84 µM. In addition, the TGI in [1] was found to be 3.24 µM; in test [2], 4.07 µM; in test [3] it was 0.337 µM; in [4], 2.3 µM; in test [5], 2.98 µM; in [7], 5.46 µM. Further, the TGI in test [8] is 3.08 µM; in [9], 3.82 µM.

Regarding `O=[N+]([O-])c1cccc([I+]c2ccccc2)c1`, the GI50 is 10.5 µM in test [1]; 7.13 µM in test [3]; 10.4 µM in test [5]; 11.3 µM in [10]; 6.21 µM in test [6]; 3.26 µM in [7]. The GI50 in test [8] is 13.8 µM; in [9], 6.42 µM. The TGI is 23.2 µM in [1]; 36 µM in test [3]; 22.8 µM in [5]; 23.5 µM in test [10]; 20.1 µM in test [6]; 32.1 µM in test [7]. Also, the TGI in test [8] worked out at 27.5 µM; in test [9] it was 26.7 µM.

As to `Cc1nc(-n2nc(-c3ccccc3)cc2-c2ccccc2)sc1C(/C=C/c1ccc([N+](=O)[O-])cc1)=N/NC(N)=S`, the TGI was above 100 µM in [1]; above 100 µM in test [2]; above 100 µM in test [4]; above 100 µM in [5]; 62.7 µM in [7]; above 100 µM in [8].

As to `Oc1[nH]c2ccccc2c1/C=c1/ccc2c(c1)N=C(c1cc(F)cc(F)c1)N=2`, the GI50 was 7.24 µM in [1]; 3.33 µM in test [3]; 10.1 µM in test [4]; 11.4 µM in test [5]; 3.64 µM in [10]; 3.94 µM in test [6]. Also, the GI50 in test [7] is 3.28 µM; in [8], 14.2 µM; in test [9], 3.55 µM. Moreover, the TGI worked out at 20.2 µM in test [1]; 13.5 µM in test [3]; 28.3 µM in test [4]; 30 µM in test [5]; 18.6 µM in test [10]; 18.9 µM in test [6]. The TGI was found to be 13.8 µM in test [7], 29 µM in [8] and 15.8 µM in test [9].

With `Cc1ccnc(NC(c2ccccc2)c2ccc3cccnc3c2O)c1` (configuration not stated), the GI50 is 13.8 µM in [1]; 2.11 µM in [2]; 3.2 µM in [3]; 2.89 µM in [4]; 5.27 µM in test [5]; 3.29 µM in test [6]. For the same compound, the figures for the GI50 in [7], in [8] and in test [9] were 3.27 µM, 4.36 µM and 3.86 µM, respectively. Moreover, the TGI in test [1] was above 100 µM; in test [2], 8.95 µM; in [3], 27.1 µM; in [4] it was 34.9 µM; in [5], above 100 µM; in test [6], 34.2 µM. Also, the TGI in test [7] was above 100 µM; in test [8], above 100 µM; in [9], 15.6 µM.

With `O=C1C(Cl)C(c2ccc([N+](=O)[O-])cc2)N1n1cnc2ccccc2c1=O` (configuration not stated), the TGI in test [1] is above 100 µM; in [3] it was 25.2 µM; in test [4] it was above 100 µM; in test [5], above 100 µM; in test [10], above 100 µM; in [6], above 100 µM. Further, the TGI in test [7] was above 100 µM; in test [8] it was 50.3 µM; in test [9], above 100 µM.

For `COc1cc(OC)c(/C=C/C(=O)c2c(O)cc(OC)c(C3CCN(C)CC3)c2OC)c(OC)c1`, the GI50 was 1.4 µM in test [3], 1.86 µM in test [10] and 1.45 µM in test [9]. Also, the results for the TGI in [3], in test [10] and in test [9] were 3 µM, 3.31 µM and 3.02 µM, respectively.

`CCCCc1c2c(nc3c1CCCC3=O)CCCC2`: the TGI is above 100 µM in [1]; 98.4 µM in test [4]; above 100 µM in [5]; above 100 µM in test [10]; above 100 µM in test [6]; above 100 µM in test [7]. For the same compound, the TGI in test [8] and in test [9] was above 100 µM each time.

On to `O=c1sc(-c2nc3ccccc3[nH]2)c(/N=C/c2ccccc2)n1-c1ccccc1`, for which the TGI in test [1] was above 100 µM; in test [3] it was 26.7 µM; in [4] it was above 100 µM; in [5], above 100 µM; in [10], above 100 µM; in test [6], above 100 µM. Also, the TGI in test [7] was above 100 µM; in test [8], 89.1 µM; in test [9] it was above 100 µM.

In the case of `NNc1ncnc2cccc(Cl)c12`, the TGI in test [1], in [3], in [4], in test [5], in test [10] and in [7] was above 100 µM throughout. In addition, the TGI in test [8] and in [9] was above 100 µM throughout.

For `ClCc1ccc(-c2ccc(Cn3cnc4c(Cl)ncnc43)cc2)cc1`, the GI50 in test [1] was 2.49 µM; in test [2], 2.02 µM; in [3], 1.46 µM; in [5], 1.64 µM; in test [10], 4.01 µM; in test [6], 1.33 µM. In addition, the figures for the GI50 in test [7], in [8] and in [9] were 2.9 µM, 1.98 µM and 2.43 µM, respectively. Besides, the TGI in test [1] is 7.79 µM; in test [2] it was 25.2 µM; in test [3], 4.28 µM; in [5], 3.69 µM; in test [10], above 100 µM; in test [6], 3.01 µM. The TGI in test [7] is above 100 µM; in test [8], 6.14 µM; in [9], 6.63 µM.

`Cn1cc(-c2ccc3nnc(C(F)(F)c4ccc5ncccc5c4)n3n2)cn1`: the GI50 is above 85.8 µM in [1]; 10.6 µM in test [2]; 38.5 µM in test [3]; 64.1 µM in [4]; 35.4 µM in [5]; 55.5 µM in test [6]. The GI50 is 78.1 µM in test [7], above 86.4 µM in test [8] and above 95.8 µM in [9]. Moreover, the TGI in test [1] is above 100 µM; in test [2], above 88.9 µM; in test [3], above 100 µM; in test [4] it was above 100 µM; in test [5] it was above 100 µM; in test [6], above 100 µM. Besides, the TGI in test [7], in [8] and in [9] was above 100 µM each time.

For the compound `COc1ccc(NC(=O)C2=CC(=O)c3ccc(O)cc3C2=O)c(OC)c1`, the TGI in test [1], in test [2], in [3], in test [4], in test [5] and in test [6] was above 100 µM in each case. Moreover, the TGI in test [7] and in test [9] was above 100 µM each time.

With `Cc1cc(C)c(C2=NO[C@@H]3C(=O)N(c4ccc(Cc5ccc(N6C(=O)[C@H]7C(c8c(C)cc(C)cc8C)=NO[C@H]7C6=O)cc5)cc4)C(=O)[C@H]23)c(C)c1`, the TGI in [1], in test [2], in [3], in test [4], in test [5] and in test [6] was above 100 µM in each case. In addition, the TGI in [7], in [8] and in [9] was above 100 µM throughout.

`O=C(CC1(O)C(=O)Nc2ccc([N+](=O)[O-])cc21)c1ccc(Br)cc1` (configuration not stated): the TGI is above 100 µM in test [1]; above 100 µM in [3]; above 100 µM in [4]; above 100 µM in [5]; 47.9 µM in test [10]; above 100 µM in [6]. The TGI in test [7] and in test [8] was above 100 µM each time.

`C=CCCCC(O)c1ccc(C(O)c2cnc3ccccc3c2)o1` (configuration not stated): the GI50 is 69.1 µM in [1]; 60.1 µM in test [2]; above 100 µM in test [3]; 30.9 µM in [5]; 28.4 µM in [10]; 17.1 µM in [6]. For the same compound, the GI50 in test [7] is 25 µM; in [8] it was above 100 µM; in [9], 38.1 µM. Besides, the TGI in test [1] was above 100 µM; in test [2], above 100 µM; in test [3], above 100 µM; in test [5] it was 90.9 µM; in test [10] it was above 100 µM; in [6], 33.8 µM. The TGI in test [7] was 52.6 µM; in test [8], above 100 µM; in test [9] it was above 100 µM.

As for `O=Cc1cn(S(=O)(=O)c2ccccc2)c2ccccc12`, the TGI was above 100 µM in [1]; above 100 µM in test [3]; above 100 µM in test [4]; above 100 µM in test [5]; 43.8 µM in test [6]; 50 µM in test [7]. The TGI in [8] and in test [9] was above 100 µM throughout.

Turning to `Cn1c2c(c3ccccc31)CCN(CCCN1CCN(c3ccccc3)CC1)C2=O`, the TGI came out at 36.7 µM in test [1]; 31.7 µM in test [2]; 46.7 µM in [5]; 30.9 µM in [10]; 60 µM in test [6]; 38.3 µM in test [7]. Also, the TGI was found to be 37 µM in [8] and 55.7 µM in [9].

In the case of `CCCCCCn1c2c(c3c(O)cccc31)C(=O)c1ccccc1-2`, the GI50 in test [1] is 35.9 µM; in test [2] it was 17.6 µM; in [3], 25 µM; in test [5], 17.6 µM; in test [10] it was 17.2 µM; in test [6], 18.1 µM. Moreover, the GI50 in test [7] was 23.7 µM; in test [8] it was 36.3 µM; in test [9], 18.2 µM. Further, the TGI in test [1] is above 100 µM; in [2], 33.2 µM; in test [3] it was 53 µM; in test [5] it was 32 µM; in [10], 35.9 µM; in test [6] it was 33.8 µM. For the same compound, the TGI is 58.4 µM in [7], above 100 µM in test [8] and 34.8 µM in [9].

On to `CN1c2ccccc2S(=O)(=O)n2c(COc3ccccc3)nnc21`, for which the TGI in [1], in test [2], in test [3], in test [5], in test [10] and in [6] was above 100 µM throughout. Besides, the TGI in test [7], in test [8] and in [9] was above 100 µM throughout.

Take `COc1cc(/C=C2\CC3C4CCC5=CC(=O)CC[C@]5(C)C4CC[C@]3(C)C2=O)ccc1OCCN1CCCCC1` (some centres not stated): the GI50 is 2.59 µM in test [1]; 1.45 µM in test [2]; 8.35 µM in test [3]; 2.79 µM in test [5]; 8.95 µM in [10]; 1.42 µM in test [6]. The GI50 in test [7] was 2.8 µM; in test [8] it was 20.5 µM; in test [9], 2.93 µM. Moreover, the TGI in test [1] was 6.13 µM; in [2], 8.34 µM; in [3], 92.2 µM; in [5] it was 9.56 µM; in test [10] it was above 100 µM; in test [6], 3.3 µM. The TGI in test [7] stood at 16.6 µM; in [8] it was 48.7 µM; in test [9], 11.7 µM.

On to `CC(C)OC(=O)c1cccnc1/C=N/O`, for which the TGI in test [4], in test [5], in test [10], in test [6], in test [7] and in test [8] was above 100 µM throughout. Further, the TGI in [9] is above 100 µM.

Take `O=C(O)C1C2CCC(O2)C1C(=O)NCc1cccnc1` (configuration not stated): the TGI in test [1], in [3], in test [4], in test [5], in [10] and in [6] was above 100 µM each time. Besides, the TGI in test [8] and in [9] was above 100 µM in each case.

As for `Cc1cc2c(C)nn(Cc3ccccc3Cl)c2c(C#N)c1C`, the TGI in test [1], in test [2], in [4], in [5], in test [6] and in [8] was above 100 µM each time. In test [9], this compound yielded a TGI above 100 µM.

The values above are taken from PubChem BioAssay (NCI).
